Calls of active or inactive are those of the source. The rule behind the calls is not given here.
Assays:
[1] = target: T1, Mitogen-activated protein kinase kinase kinase 19 (Homo sapiens) (UniProt Q56UN5); assay: Inhibition of wild-type human partial length YSK4 (T1019 to H1328 residues) expressed in mammalian expression system at 1 uM by Kinomescan method
T1 sequence (whole entry): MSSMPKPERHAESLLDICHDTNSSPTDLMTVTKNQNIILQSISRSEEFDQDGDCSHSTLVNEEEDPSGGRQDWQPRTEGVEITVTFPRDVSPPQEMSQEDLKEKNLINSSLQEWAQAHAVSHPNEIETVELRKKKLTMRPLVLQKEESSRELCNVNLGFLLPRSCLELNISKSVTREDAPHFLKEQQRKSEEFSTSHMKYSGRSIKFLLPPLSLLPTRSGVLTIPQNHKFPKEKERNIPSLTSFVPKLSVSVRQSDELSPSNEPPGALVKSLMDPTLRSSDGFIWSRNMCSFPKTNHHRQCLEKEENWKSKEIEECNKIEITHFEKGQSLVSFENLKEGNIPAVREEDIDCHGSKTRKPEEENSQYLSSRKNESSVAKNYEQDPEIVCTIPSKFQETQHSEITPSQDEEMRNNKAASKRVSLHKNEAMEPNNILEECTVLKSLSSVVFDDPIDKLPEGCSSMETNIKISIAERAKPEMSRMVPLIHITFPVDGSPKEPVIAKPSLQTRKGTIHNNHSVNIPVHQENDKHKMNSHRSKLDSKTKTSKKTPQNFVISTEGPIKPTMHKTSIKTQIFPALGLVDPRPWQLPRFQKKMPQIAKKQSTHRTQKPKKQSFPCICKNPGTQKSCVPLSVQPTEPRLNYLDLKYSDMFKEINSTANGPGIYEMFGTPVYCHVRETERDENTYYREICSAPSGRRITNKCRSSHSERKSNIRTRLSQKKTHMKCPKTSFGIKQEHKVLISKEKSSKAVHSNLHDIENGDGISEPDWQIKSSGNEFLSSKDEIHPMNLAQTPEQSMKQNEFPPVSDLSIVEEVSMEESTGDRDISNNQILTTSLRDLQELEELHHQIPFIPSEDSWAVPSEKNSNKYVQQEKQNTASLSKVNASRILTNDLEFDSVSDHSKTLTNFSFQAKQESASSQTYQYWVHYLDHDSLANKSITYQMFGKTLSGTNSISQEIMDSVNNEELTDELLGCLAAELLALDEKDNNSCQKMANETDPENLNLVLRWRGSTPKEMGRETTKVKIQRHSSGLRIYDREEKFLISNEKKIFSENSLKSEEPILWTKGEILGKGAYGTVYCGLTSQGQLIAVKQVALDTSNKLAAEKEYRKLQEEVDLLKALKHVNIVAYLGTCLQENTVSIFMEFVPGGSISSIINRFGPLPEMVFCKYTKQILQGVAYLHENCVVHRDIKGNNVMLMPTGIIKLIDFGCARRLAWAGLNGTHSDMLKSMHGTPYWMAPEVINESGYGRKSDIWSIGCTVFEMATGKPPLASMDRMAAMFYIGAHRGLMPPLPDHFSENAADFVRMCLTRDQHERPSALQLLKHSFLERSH

[2] = target: Interleukin-1 receptor-associated kinase 1 (Homo sapiens, UniProt P51617); assay: Inhibition of IRAK1 in human HBL1 cells assessed as reduction in total STAT3 level at up to 1 uM measured after 24 hrs by Western blot analysis; type: cell-based; settings: dose microM <=1, time 24.0 hrs
Sequence of Interleukin-1 receptor-associated kinase 1 (P51617 whole entry, looked up, the tested form may be a part): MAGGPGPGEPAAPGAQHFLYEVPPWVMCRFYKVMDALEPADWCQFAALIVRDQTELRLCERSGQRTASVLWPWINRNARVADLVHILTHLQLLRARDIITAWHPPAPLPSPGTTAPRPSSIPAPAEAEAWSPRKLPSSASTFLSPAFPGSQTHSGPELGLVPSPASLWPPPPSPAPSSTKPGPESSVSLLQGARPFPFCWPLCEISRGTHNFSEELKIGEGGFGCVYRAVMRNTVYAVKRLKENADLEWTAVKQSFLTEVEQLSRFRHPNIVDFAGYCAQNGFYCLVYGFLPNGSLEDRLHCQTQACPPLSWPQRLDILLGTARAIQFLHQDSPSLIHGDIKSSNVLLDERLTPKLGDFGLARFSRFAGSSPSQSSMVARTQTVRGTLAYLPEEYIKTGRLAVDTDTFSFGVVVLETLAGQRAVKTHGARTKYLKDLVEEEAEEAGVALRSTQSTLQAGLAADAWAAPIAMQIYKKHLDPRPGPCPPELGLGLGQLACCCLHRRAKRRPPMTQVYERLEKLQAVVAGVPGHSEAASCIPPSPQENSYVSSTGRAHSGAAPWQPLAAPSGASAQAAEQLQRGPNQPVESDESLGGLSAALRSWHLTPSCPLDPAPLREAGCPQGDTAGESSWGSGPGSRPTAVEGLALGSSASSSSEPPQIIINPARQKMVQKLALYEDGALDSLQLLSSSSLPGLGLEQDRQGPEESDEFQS

[3] = target: NmrA-like family domain-containing protein 1 (Homo sapiens) (UniProt Q9HBL8); assay: Induction of NMRAL1 degradation in human Toledo cells assessed as decrease in protein abundance at 1 uM measured after 6 hrs by quantitative mass spectrometry; type: cell-based
Sequence of NmrA-like family domain-containing protein 1 (Homo sapiens) (Q9HBL8 whole entry, the tested form may be a part): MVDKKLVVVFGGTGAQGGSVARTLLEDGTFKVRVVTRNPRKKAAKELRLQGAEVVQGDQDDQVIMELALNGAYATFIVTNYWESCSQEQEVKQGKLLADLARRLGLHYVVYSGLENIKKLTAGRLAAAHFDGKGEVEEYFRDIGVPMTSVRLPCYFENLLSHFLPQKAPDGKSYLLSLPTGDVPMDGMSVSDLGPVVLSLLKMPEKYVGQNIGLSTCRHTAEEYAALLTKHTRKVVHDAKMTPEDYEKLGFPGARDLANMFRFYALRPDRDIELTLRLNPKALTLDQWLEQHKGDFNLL

HBL1 = assay: Induction of apoptosis in human HBL1 cells assessed as increase in PARP cleavage at up to 1 uM measured after 24 hrs by Western blot analysis; type: functional, cell-based; settings: dose microM <=1, time 24.0 hrs
[4] = target: T2, Cyclin-G-associated kinase (Homo sapiens) (UniProt O14976); assay: Induction of GAK degradation in human Toledo cells assessed as decrease in protein abundance at 1 uM measured after 6 hrs by quantitative mass spectrometry; type: cell-based
T2 sequence (whole entry): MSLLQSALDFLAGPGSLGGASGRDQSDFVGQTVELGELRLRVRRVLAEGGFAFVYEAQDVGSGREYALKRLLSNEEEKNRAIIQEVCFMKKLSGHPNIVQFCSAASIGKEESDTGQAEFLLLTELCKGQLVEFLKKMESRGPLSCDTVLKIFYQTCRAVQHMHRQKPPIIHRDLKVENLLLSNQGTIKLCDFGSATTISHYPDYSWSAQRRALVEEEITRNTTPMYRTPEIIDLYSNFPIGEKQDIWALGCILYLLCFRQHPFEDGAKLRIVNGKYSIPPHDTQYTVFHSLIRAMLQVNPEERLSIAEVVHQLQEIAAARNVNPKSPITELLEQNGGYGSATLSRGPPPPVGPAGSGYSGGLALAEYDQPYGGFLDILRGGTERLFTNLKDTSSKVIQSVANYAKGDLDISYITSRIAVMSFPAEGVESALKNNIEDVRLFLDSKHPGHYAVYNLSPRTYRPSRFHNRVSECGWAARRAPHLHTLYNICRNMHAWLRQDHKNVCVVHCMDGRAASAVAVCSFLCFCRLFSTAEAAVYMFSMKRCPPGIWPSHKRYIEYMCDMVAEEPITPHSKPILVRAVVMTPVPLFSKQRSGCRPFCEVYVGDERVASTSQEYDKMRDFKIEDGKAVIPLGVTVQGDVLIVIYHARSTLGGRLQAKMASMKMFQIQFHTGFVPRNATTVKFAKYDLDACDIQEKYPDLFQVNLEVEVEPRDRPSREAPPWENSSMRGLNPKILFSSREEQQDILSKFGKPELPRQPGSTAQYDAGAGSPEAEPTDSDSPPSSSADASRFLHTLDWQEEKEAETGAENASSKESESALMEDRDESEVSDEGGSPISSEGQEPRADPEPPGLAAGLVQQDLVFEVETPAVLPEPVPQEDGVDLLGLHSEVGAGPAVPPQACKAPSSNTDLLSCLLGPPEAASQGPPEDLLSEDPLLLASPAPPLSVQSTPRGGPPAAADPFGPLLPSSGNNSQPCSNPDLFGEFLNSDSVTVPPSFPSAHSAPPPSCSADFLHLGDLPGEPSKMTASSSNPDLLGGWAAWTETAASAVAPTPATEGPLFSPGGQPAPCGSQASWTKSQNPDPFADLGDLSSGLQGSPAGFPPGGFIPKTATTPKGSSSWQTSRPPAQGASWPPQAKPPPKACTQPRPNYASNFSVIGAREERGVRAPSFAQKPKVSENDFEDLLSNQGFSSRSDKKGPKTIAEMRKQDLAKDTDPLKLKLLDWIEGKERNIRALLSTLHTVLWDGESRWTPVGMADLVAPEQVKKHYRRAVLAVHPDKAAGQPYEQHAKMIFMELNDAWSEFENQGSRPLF

[5] = target: von Hippel-Lindau disease tumor suppressor/Interleukin-1 receptor-associated kinase 1 (Homo sapiens, UniProt P51617+P40337); assay: Protac activity at IRAK1/VHL E3 ligase in HEK293T cells assessed as induction of IRAK1 degradation at 10 uM measured after 24 hrs by Western blot analysis relative to control; type: cell-based
Sequence of von Hippel-Lindau disease tumor suppressor/Interleukin-1 receptor-associated kinase 1 (P40337 whole entry, looked up): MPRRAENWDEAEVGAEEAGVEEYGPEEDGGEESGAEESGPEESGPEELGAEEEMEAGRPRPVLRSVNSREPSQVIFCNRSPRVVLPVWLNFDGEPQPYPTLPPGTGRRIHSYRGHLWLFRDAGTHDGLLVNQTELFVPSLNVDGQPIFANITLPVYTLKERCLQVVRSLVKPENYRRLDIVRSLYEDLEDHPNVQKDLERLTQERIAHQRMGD
Sequence of von Hippel-Lindau disease tumor suppressor/Interleukin-1 receptor-associated kinase 1 (P51617 whole entry, looked up): as the sequence (P51617 whole entry, looked up, the tested form may be a part) above

COc1cc(N2CCC(OCC(=O)N[C@H](C(=O)N3C[C@H](O)C[C@H]3C(=O)N[C@@H](C)c3ccc(-c4scnc4C)cc3)C(C)(C)C)CC2)ccc1NC(=O)c1cccc(-c2ccn[nH]2)n1
inhibition [1]: Active | inhibition [2]: inactive | Activity [3]: Active | Activity (HBL1): Active | Activity [4]: Active | %max [5]: 96%

Source: ChEMBL document CHEMBL5029152, “Discovery of Highly Potent and Selective IRAK1 Degraders to Probe Scaffolding Functions of IRAK1 in ABC DLBCL” (J Med Chem, 2021)
